Measurements taken from article PMC4450297, “Screening Active Compounds from Garcinia Species Native to China Reveals Novel Compounds Targeting the STAT/JAK Signaling Pathway” (BioMed Research International, 2015).
Like-named read-outs stand apart in the source and are kept apart here.

Legend:
HuVec = assay: Cell proliferation assay (CellTiter-Glo), control cell line; type: cell-based; settings: Homo sapiens, 72 h
Protocol: (§1) All cells were obtained from the cell bank of the American Type Culture Collection (ATCC) and cultured in the supplier's recommended media supplemented with 10% FBS. The cell panel screen was measured using the CellTiter-Glo assay (Promega, Madison, WI) following a standard protocol. Briefly, cancer cells were seeded in 96-well plates and cultured overnight at 37°C with or without 5% CO2 in an incubator. Each compound was dissolved with limited DMSO and diluted to a certain concentration with culture medium and then added to the corresponding well of the cell plate. The final concentration of compound was 20 μM. The control cells (without treatment) received the same amount of DMSO and were incubated under the same conditions. After 72 h cultivation, 100 μL of the CellTiter-Glo reagent was added directly to each well for 10-minute incubation. The plate was then read on a FlexStation 3 microplate luminometer (Molecular Devices, USA) to monitor the luminescence signal generated by the luciferase-catalyzed reaction of luciferin and ATP. The percent of growth inhibition was calculated using the following formula: (untreated cells − treated cells)/(untreated cells − background without cells) ∗ 100.
(§2) For proliferation assays, the CellTiter-Glo assay (Promega, Madison, WI) was used to evaluate the proliferation of cancer cells treated with test compounds as described above. Each compound was dissolved in limited DMSO and diluted to various concentrations with culture medium and then added to the corresponding wells. A dose-response curve was plotted, and the IC50 was calculated using XLfit software.

NCI-H1650 = assay: Cell proliferation assay (CellTiter-Glo); type: cell-based, human; settings: NCI-H1650 cells, 20 μM to 0.009 μM in serial 3-fold dilutions
Protocol: as §1, §2

NCI-H1573 = assay: Cell proliferation assay (CellTiter-Glo); type: cell-based; settings: Homo sapiens, NCI-H1573 cells, 72 h
Protocol: as §1, §2

NCI-H1975 = assay: Cell proliferation assay (CellTiter-Glo); type: cell-based; settings: Homo sapiens, NCI-H1975 cells, 72 h
Protocol: as §1, §2

SW954 = assay: Cell proliferation assay (CellTiter-Glo); type: cell-based; settings: Homo sapiens, SW 954, SW954 cells, 72 h
Protocol: as §1, §2

SK-MEL-28 = assay: Cell proliferation assay (CellTiter-Glo); type: cell-based; settings: Homo sapiens, SK-MEL-28 cells, 72 h
Protocol: as §1, §2

SW48 = assay: Cell proliferation assay (CellTiter-Glo); type: cell-based; settings: Homo sapiens, SW48 cells, 72 h
Protocol: as §1, §2

CHP212 = assay: Cell proliferation assay (CellTiter-Glo); type: cell-based; settings: Homo sapiens, CHP-212, CHP212 cells, 72 h
Protocol: as §1, §2

SW1353 = assay: Cell proliferation assay (CellTiter-Glo); type: cell-based; settings: Homo sapiens, SW1353 cells, 72 h
Protocol: as §1, §2

LnCap = assay: Cell proliferation assay (CellTiter-Glo); type: cell-based; settings: Homo sapiens, LnCap cells, 72 h
Protocol: as §1, §2

NCI-H1993 = assay: Cell proliferation assay (CellTiter-Glo); type: cell-based; settings: Homo sapiens, NCI-H1993 cells, 72 h
Protocol: as §1, §2

A549 = assay: Cell proliferation assay (CellTiter-Glo); type: cell-based; settings: Homo sapiens, A549 cells, 72 h
Protocol: as §1, §2

U118MG = assay: Cell proliferation assay (CellTiter-Glo); type: cell-based; settings: Homo sapiens, U-118-MG, U118MG cells, 72 h
Protocol: as §1, §2

NCI-H838 = assay: Cell proliferation assay (CellTiter-Glo); type: cell-based; settings: Homo sapiens, NCI-H838 cells, 72 h
Protocol: as §1, §2

[1] = test system: PUMA, NOXA, and CDIP mRNA in NCI-H1650 cells; assay: Quantitative real-time PCR of proapoptotic genes; type: cell-based, human; settings: 24-hour treatment
Source text: The primers for PUMA (Cat. Hs00248075_m1), CDIP1 (Cat. Hs00924663_g1), and NOXA (Cat. Hs00560402_m1) for quantitative PCR were all purchased from Invitrogen. Dissociation curves and no-cDNA controls were generated for each primer pair to detect nonspecific amplification. A standard curve was generated for each primer pair as well as for glyceraldehyde-3-phosphate dehydrogenase (GAPDH; using in this case a predeveloped TaqMan assay), to which gene expression levels were normalized by a comparative threshold cycle method. Finally, a ratio was calculated comparing normalized gene expression values in treated versus untreated controls for each sample.
Total RNA was extracted from the NCI-H1650 cell line using the RNeasy kit (Qiagen). cDNA synthesis was performed using Superscript II RNase H– reverse transcriptase (Life Technologies, Bethesda, MD, USA) to transcribe 2 μg of total RNA primed with 1 μL of 500 μg/mL random hexamers. For quantitative real-time PCR analysis, an ABI TaqMan assay (HS00378697) was used in an ABI 7300 system with the following profile: 95°C for 10 min, followed by 40 cycles of 15 s at 95°C and 60 s at 60°C. PUMA, NOXA, and CDIP1 mRNA levels were normalized by comparison to GAPDH RNA levels in the same samples. Each measurement was performed at least in duplicate.

NCI-H524 = assay: Cell panel screen (CellTiter-Glo); type: cell-based, human; settings: Homo sapiens, read-out: Percent Inhibition
Procedure, shortened: (§3)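 Steps: seed cells, culture overnight at 37°C; add compound diluted in medium from DMSO stock to 20 μM final; incubate 72 h; add detection reagent for 10 min; read luminescence; compute % inhibition versus vehicle controls.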

HCC1937 = assay: Cell panel screen (CellTiter-Glo); type: cell-based, human; settings: Homo sapiens, read-out: Percent Inhibition
Procedure, shortened: as §3

HPAF-II = assay: Cell panel screen (CellTiter-Glo); type: cell-based, human; settings: Homo sapiens, read-out: Percent Inhibition
Procedure, shortened: as §3

A704 = assay: Cell panel screen (CellTiter-Glo); type: cell-based, human; settings: Homo sapiens, read-out: Percent Inhibition
Procedure, shortened: as §3

CCF-STTG1 = assay: Cell panel screen (CellTiter-Glo); type: cell-based, human; settings: Homo sapiens, read-out: Percent Inhibition
Procedure, shortened: as §3

A498 = assay: Cell panel screen (CellTiter-Glo); type: cell-based, human; settings: Homo sapiens, read-out: Percent Inhibition
Procedure, shortened: as §3

NCI-H1770 = assay: Cell panel screen (CellTiter-Glo); type: cell-based, human; settings: Homo sapiens, read-out: Percent Inhibition
Procedure, shortened: as §3

Panc 03.27 = assay: Cell panel screen (CellTiter-Glo); type: cell-based, human; settings: Homo sapiens, read-out: Percent Inhibition
Procedure, shortened: as §3

[2] = NCI-H524 (Lung), 20 micromolar, 72 hrs
[3] = HCC1937 (Breast), 20 micromolar, 72 hrs
[4] = HPAF-II (Pancreas), 20 micromolar, 72 hrs
[5] = A704 (Kidney), 20 micromolar, 72 hrs
[6] = CCF-STTG1 (Brain), 20 micromolar, 72 hrs
[7] = A498 (listed under Lung), 20 micromolar, 72 hrs
[8] = NCI-H1770 (Lung), 20 micromolar, 72 hrs
[9] = PANC-03-27, Panc 03.27 (Pancreas), 20 micromolar, 72 hrs

Row | Compound | IC50 (HuVec) [nM] | IC50 (NCI-H1650; Homo sapiens, NCI-H1650, 72 h) [nM] | IC50 (NCI-H1573) [nM] | IC50 (NCI-H1975) [nM] | IC50 (SW954) [nM] | IC50 (SK-MEL-28) [nM] | IC50 (SW48) [nM] | IC50 (CHP212) [nM] | IC50 (SW1353) [nM] | IC50 (LnCap) [nM] | IC50 (NCI-H1993) [nM] | IC50 (A549) [nM] | IC50 (U118MG) [nM] | IC50 (NCI-H838) [nM] | induction of CIDP mRNA [1] | induction of NOXA mRNA [1] | induction of PUMA mRNA [1] | inhibition at 20 µM (NCI-H524; [2]) [%] | inhibition at 20 µM (HCC1937; [3]) [%] | inhibition at 20 µM (HPAF-II; [4]) [%] | also measured
1 | CC(C)=CCC/C(C)=C/Cc1c(O)c(CC=C(C)C)c2c(c1O)C(=O)C1=C[C@@H]3C[C@H]4C(C)(C)O[C@@](C/C=C(\C)C=O)(C3=O)[C@@]14O2 [GB49] | 1470 ± 70 | 970 ± 40 | 7890 ± 140 | 1690 ± 150 | 1880 ± 100 | 1510 ± 120 | 2970 ± 60 | 1430 ± 30 | 1290 ± 50 | 1910 ± 60 | 2550 ± 140 | 3460 ± 200 | 1220 ± 50 | 2720 ± 150 | no effect | no effect | no effect | 100 | 99 | 98 | inhibition at 20 µM (A704; [5]): 98%; inhibition at 20 µM (CCF-STTG1; [6]): 99%; inhibition at 20 µM (A498; [7]): 88%; inhibition at 20 µM (NCI-H1770; [8]): 99%; inhibition at 20 µM (Panc 03.27; [9]): 98%
2 | CC(C)=CCC/C(C)=C/Cc1c(O)c(CC=C(C)C)c2c(c1O)C(=O)C1=C[C@@H]3C[C@H]4C(C)(C)O[C@@](CC=C(C)C)(C3=O)[C@@]14O2 [GB32] | 1630 ± 60 |  | 4360 ± 150 | 1580 ± 120 | 2430 ± 170 | 1510 ± 70 | 3840 ± 90 | 1450 ± 80 | 1410 ± 50 | 1800 ± 140 | 2470 ± 110 | 2880 ± 60 | 1190 ± 70 | 3150 ± 40 | no effect | no effect | no effect |  |  |  | IC50 (NCI-H1650; Homo sapiens, 72 hr): 1090 ± 150 nM; inhibition at 20 µM (NCI-H524; NCI-H524, 72 h): 99%; inhibition at 20 µM (HCC1937; HCC1937, 72 h): 99%; inhibition at 20 µM (HPAF-II; HPAF-II, 72 h): 99%; inhibition at 20 µM (A704; A704, 72 h): 99%; inhibition at 20 µM (CCF-STTG1; CCF-STTG1, 72 h): 99%; inhibition at 20 µM (A498; A498, 72 h): 98%; inhibition at 20 µM (NCI-H1770; NCI-H1770, 72 h): 99%; inhibition at 20 µM (Panc 03.27; PANC-03-27, 72 h): 99%
3 | CC(C)=CCC[C@@]1(C)C=Cc2c(O)c3c(c(CCC(C)(C)O)c2O1)O[C@]12C(=C[C@@H]4C[C@H]1C(C)(C)O[C@@]2(C/C=C(/C)C(=O)O)C4=O)C3=O [GB39, 33-hydroxyepigambogic acid] | 890 ± 90 | < 1000 | 6080 ± 210 | 1250 ± 140 | 940 ± 40 | 820 ± 110 | 1440 ± 60 | 1200 ± 80 | 760 ± 30 | 840 ± 80 | 1030 ± 130 | 3040 ± 100 | 1150 ± 90 | 1500 ± 70 | 3 fold | greater than 5 fold | 3 fold | 100 | 100 | 100 | IC50 (NCI-H1650; 72 hr): 950 ± 30 nM; inhibition at 20 µM (A704; [5]): 99%; inhibition at 20 µM (CCF-STTG1; [6]): 100%; inhibition at 20 µM (A498; [7]): 99%; inhibition at 20 µM (NCI-H1770; [8]): 100%; inhibition at 20 µM (Panc 03.27; [9]): 100%
4 | CC(C)=CCC/C(C)=C/Cc1c(O)c(CC=C(C)C)c2c(c1O)C(=O)C1=C[C@@H]3C[C@H]4C(C)(C)O[C@@](C/C=C(\C)C(=O)O)(C3=O)[C@@]14O2 [GB63] | 1900 ± 30 | 1430 ± 90 | 7920 ± 290 | 1710 ± 220 | 2580 ± 160 | 1750 ± 160 | 4020 ± 150 | 3510 ± 80 | 2480 ± 110 | 2170 ± 210 | 2150 ± 100 | 3770 ± 60 | 3050 ± 100 | 2650 ± 200 | no effect | no effect | no effect | 98 | 100 | 99 | inhibition at 20 µM (A704; [5]): 99%; inhibition at 20 µM (CCF-STTG1; [6]): 99%; inhibition at 20 µM (A498; [7]): 98%; inhibition at 20 µM (NCI-H1770; [8]): 99%; inhibition at 20 µM (Panc 03.27; [9]): 99%
5 | CC(C)=CCC[C@@]1(C)C=Cc2c(O)c3c(c(C/C=C(\C)CO)c2O1)O[C@]12C(=C[C@@H]4C[C@H]1C(C)(C)O[C@@]2(C/C=C(/C)C(=O)O)C4=O)C3=O [GB40, 35-hydroxyepigambogic acid] | 680 ± 10 | < 1000 | 5990 ± 190 | 960 ± 50 | 1020 ± 100 | 730 ± 210 | 1470 ± 100 | 1180 ± 50 | 830 ± 50 | 790 ± 120 | 1290 ± 50 | 2450 ± 60 | 1030 ± 150 | 1680 ± 190 | 2 fold | greater than 5 fold | 2 fold | 99 | 99 | 99 | IC50 (NCI-H1650; 72 hr): 620 ± 30 nM; inhibition at 20 µM (A704; [5]): 98%; inhibition at 20 µM (CCF-STTG1; [6]): 99%; inhibition at 20 µM (A498; [7]): 98%; inhibition at 20 µM (NCI-H1770; [8]): 99%; inhibition at 20 µM (Panc 03.27; [9]): 99%
